Results taken from patent US20230085307A1, “PYRIDAZINONE COMPOUND AND HERBICIDE” (NISSAN CHEMICAL CORPORATION, priority 2019, published 2023).

Columns and labels:
lambsquarters = test: Test Example 4: herbicidal effect by soil treatment (Table 19, symbol O); format: in vivo, lambsquarters (Chenopodium album); conditions: amount of applied herbicide 320 g/ha
Method in brief: (§1)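 Emulsion of test compound, water-diluted to predetermined amount, sprayed on soil after sowing (seed depth ~1.5 cm, sterilized diluvial soil). Greenhouse, 25–30° C. Effect graded at three weeks post-spray.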

barnyard grass [1] = test: Test Example 3: herbicidal effect by foliage application, Wagner pot (Table 18, symbol H); format: in vivo, barnyard grass (Echinochloa crus-galli); conditions: for herbicidal effect on H (barnyard grass), rating 0-5: 320 g/ha
Method in brief: (§2)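 Plants were sown in alluvial soil held under 0.1–0.5 cm standing water and grown 14 days in a greenhouse at 25–30 °C. An emulsifiable formulation, water-diluted to the set dose, was then sprayed onto the foliage, and effects were scored three weeks later using previously defined criteria.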

Chinese sprangletop = test: Test Example 3: herbicidal effect by foliage application, Wagner pot (Table 18, symbol D); format: in vivo, chinese sprangletop (Leptochloa chinensis); conditions: for herbicidal effect on D (Chinese sprangletop), rating 0-5: 320 g/ha
Method in brief: as §2

oval-leafed pondweed = test: Test Example 1: herbicidal activity, application before weed generation under submerged conditions (Table 16, symbol C); format: in vivo, oval-leafed pondweed (Monochoria vaginalis); conditions: 320 g/ha applied herbicide
Method in brief: (§3)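 Emulsion formulation, water-diluted to set dose, was put onto the flooded surface (4 cm depth, alluvial soil) the same day weeds were sown and 2.5-leaf rice transplanted. After 3 weeks at 25-30 °C under glass, each species was rated 0 (≤5% kill) to 5 (≥90% kill).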

late watergrass = test: Test Example 2: herbicidal activity, application during weed generation under submerged conditions (Table 17, symbol A); format: in vivo, late watergrass (Echinochloa oryzicola); conditions: AAH 320 g/ha; application during weed generation, submerged conditions
Method in brief: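 Herbicide emulsion, diluted with water to the chosen amount, is applied onto 4 cm floodwater over alluvial soil where the weeds were co-sown and raised at 25–30° C. Application timing: 1–2 leaves. Assessment: three weeks afterwards.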

velvetleaf [2] = test: Test Example 5: herbicidal effect by foliage application, plastic box (Table 20, symbol M); format: in vivo, velvetleaf (Abutilon theophrasti); conditions: foliage application
Method in brief: (§4)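 Post-emergence foliar test in sterilized diluvial soil. Compound applied as water-diluted emulsion at a predetermined rate to 14-day-old plants; evaluation at three weeks.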

wild oat [3] = test: Test Example 4: herbicidal effect by soil treatment (Table 19, symbol I); format: in vivo, wild oat (Avena fatua); conditions: amount of applied herbicide 320 g/ha
Method in brief: as §1

rice flat sedge = test: Test Example 3: herbicidal effect by foliage application, Wagner pot (Table 18, symbol E); format: in vivo, rice flat sedge (Cyperus iria); conditions: for herbicidal effect on E (rice flat sedge), rating 0-5: 320 g/ha
Method in brief: as §2

velvetleaf [4] = test: Test Example 4: herbicidal effect by soil treatment (Table 19, symbol M); format: in vivo, velvetleaf (Abutilon theophrasti); conditions: amount of applied herbicide 320 g/ha
Method in brief: as §1

green foxtail = test: Test Example 5: herbicidal effect by foliage application, plastic box (Table 20, symbol G); format: in vivo, green foxtail (Setaria viridis); conditions: foliage application
Method in brief: as §4

chickweed = test: Test Example 5: herbicidal effect by foliage application, plastic box (Table 20, symbol P); format: in vivo, common chickweed (Stellaria media); conditions: foliage application
Method in brief: as §4

Japanese bulrush = test: Test Example 1: herbicidal activity, application before weed generation under submerged conditions (Table 16, symbol B); format: in vivo, Japanese bulrush (Schoenoplectus juncoides); conditions: 320 g/ha applied herbicide
Method in brief: as §3

windgrass [5] = test: Test Example 5: herbicidal effect by foliage application, plastic box (Table 20, symbol L); format: in vivo, windgrass (Apera spica-venti); conditions: foliage application, three weeks after application; for herbicidal effect grade, L: windgrass: 320 g/ha
Method in brief: as §4

blackgrass = test: Test Example 5: herbicidal effect by foliage application, plastic box (Table 20, symbol J); format: in vivo, blackgrass (Alopecurus myosuroides); conditions: foliage application
Method in brief: as §4

windgrass [6] = test: Test Example 4: herbicidal effect by soil treatment (Table 19, symbol L); format: in vivo, windgrass (Apera spica-venti); conditions: amount of applied herbicide 320 g/ha
Method in brief: as §1

barnyard grass [7] = test: Test Example 4: herbicidal effect by soil treatment (Table 19, symbol H); format: in vivo, barnyard grass (Echinochloa crus-galli); conditions: amount of applied herbicide 320 g/ha
Method in brief: as §1

wild oat [8] = test: Test Example 5: herbicidal effect by foliage application, plastic box (Table 20, symbol I); format: in vivo, wild oat (Avena fatua); conditions: foliage application
Method in brief: as §4

[9] = 320 g/ha, three weeks after application
[10] = AAH 320 g/ha, three weeks after application
[11] = amount of applied herbicide 320 g/ha
[12] = 320 g/ha, evaluated three weeks after application

Compound	herbicidal effect rating, O: lambsquarters (lambsquarters)	herbicidal effect on H (barnyard grass), rating 0-5 (barnyard grass [1])	herbicidal effect on D (Chinese sprangletop), rating 0-5 (Chinese sprangletop)	Herbicidal effect on C: oval-leafed pondweed (grade 0-5) (oval-leafed pondweed)	herbicidal effect rating, A: late watergrass (late watergrass)	herbicidal effect grade, M: velvetleaf (velvetleaf [2]; [9])	herbicidal effect rating, I: wild oat (wild oat [3])	herbicidal effect on E (rice flat sedge), rating 0-5 (rice flat sedge)	herbicidal effect rating, M: velvetleaf (velvetleaf [4])	herbicidal effect grade, G: green foxtail (green foxtail; [9])	herbicidal effect grade, P: chickweed (chickweed; [9])	Herbicidal effect on B: Japanese bulrush (grade 0-5) (Japanese bulrush)	herbicidal effect grade, L: windgrass (windgrass [5])	herbicidal effect grade, J: blackgrass (blackgrass; [9])	herbicidal effect rating, L: windgrass (windgrass [6])	herbicidal effect rating, H: barnyard grass (barnyard grass [7])	herbicidal effect grade, I: wild oat (wild oat [8]; [9])	also measured
CCCC(=O)Oc1c(C)nn(C)c(=O)c1-c1c(-c2ccc(OCC)cc2)sc2ccccc12 [1-014]	2 (Herbicidal rate of 20% or more and less than 40%)	4 (Herbicidal rate of 70% or more and less than 90%)	0 (Herbicidal rate of 5% or less (almost no effect))	5 (Herbicidal rate of 90% or more (almost completely withered))	3 (Herbicidal rate of 40% or more and less than 70%)	4 (Herbicidal rate of 70% or more and less than 90%)	0 (Herbicidal rate of 5% or less (almost no effect))	5 (Herbicidal rate of 90% or more (almost completely withered))	0 (Herbicidal rate of 5% or less (almost no effect))	4 (Herbicidal rate of 70% or more and less than 90%)	5 (Herbicidal rate of 90% or more (almost completely withered))	5 (Herbicidal rate of 90% or more (almost completely withered))	0 (Herbicidal rate of 5% or less (almost no effect))	0 (Herbicidal rate of 5% or less (almost no effect))	0 (Herbicidal rate of 5% or less (almost no effect))	2 (Herbicidal rate of 20% or more and less than 40%)	1 (Herbicidal rate of 5% or more and less than 20%)	–
CCCOc1ccccc1-c1sc2ccccc2c1-c1c(O)c(C)nn(C)c1=O [1-015]	0 (Herbicidal rate of 5% or less (almost no effect))	5 (Herbicidal rate of 90% or more (almost completely withered))	3 (Herbicidal rate of 40% or more and less than 70%)	3 (Herbicidal rate of 40% or more and less than 70%)	3 (Herbicidal rate of 40% or more and less than 70%)	5 (Herbicidal rate of 90% or more (almost completely withered))	0 (Herbicidal rate of 5% or less (almost no effect))	5 (Herbicidal rate of 90% or more (almost completely withered))	0 (Herbicidal rate of 5% or less (almost no effect))	4 (Herbicidal rate of 70% or more and less than 90%)	5 (Herbicidal rate of 90% or more (almost completely withered))	3 (Herbicidal rate of 40% or more and less than 70%)	5 (Herbicidal rate of 90% or more (almost completely withered))	5 (Herbicidal rate of 90% or more (almost completely withered))	5 (Herbicidal rate of 90% or more (almost completely withered))	4 (Herbicidal rate of 70% or more and less than 90%)	3 (Herbicidal rate of 40% or more and less than 70%)	–
CCCCCOc1ccc(-c2sc3ccccc3c2-c2c(O)c(C)nn(C)c2=O)cc1 [1-026]	0 (Herbicidal rate of 5% or less (almost no effect))	4 (Herbicidal rate of 70% or more and less than 90%)	1 (Herbicidal rate of 5% or more and less than 20%)	1 (Herbicidal rate of 5% or more and less than 20%)	2 (Herbicidal rate of 20% or more and less than 40%)	5 (Herbicidal rate of 90% or more (almost completely withered))	0 (Herbicidal rate of 5% or less (almost no effect))	4 (Herbicidal rate of 70% or more and less than 90%)	0 (Herbicidal rate of 5% or less (almost no effect))	5 (Herbicidal rate of 90% or more (almost completely withered))	5 (Herbicidal rate of 90% or more (almost completely withered))	2 (Herbicidal rate of 20% or more and less than 40%)	4 (Herbicidal rate of 70% or more and less than 90%)	4 (Herbicidal rate of 70% or more and less than 90%)	0 (Herbicidal rate of 5% or less (almost no effect))	0 (Herbicidal rate of 5% or less (almost no effect))	2 (Herbicidal rate of 20% or more and less than 40%)	–
Cc1nn(C)c(=O)c(-c2c(-c3cnc4ccccc4c3)sc3ccccc23)c1O [1-108]	3 (Herbicidal rate of 40% or more and less than 70%)	0 (Herbicidal rate of 5% or less (almost no effect))	3 (Herbicidal rate of 40% or more and less than 70%)	0 (Herbicidal rate of 5% or less (almost no effect))	0 (Herbicidal rate of 5% or less (almost no effect))	–	0 (Herbicidal rate of 5% or less (almost no effect))	5 (Herbicidal rate of 90% or more (almost completely withered))	–	–	–	2 (Herbicidal rate of 20% or more and less than 40%)	–	–	0 (Herbicidal rate of 5% or less (almost no effect))	0 (Herbicidal rate of 5% or less (almost no effect))	–	M: velvetleaf, herbicidal effect (velvetleaf [2]; [10]): 1 (Herbicidal rate of 5% or more and less than 20%); G: green foxtail, herbicidal effect (green foxtail; [10]): 0 (Herbicidal rate of 5% or less (almost no effect)); P: chickweed, herbicidal effect (chickweed; [10]): 2 (Herbicidal rate of 20% or more and less than 40%); L: windgrass, herbicidal effect (windgrass [5]; AAH 320 g/ha): 0 (Herbicidal rate of 5% or less (almost no effect)); J: blackgrass, herbicidal effect (blackgrass; [10]): 0 (Herbicidal rate of 5% or less (almost no effect)); I: wild oat, herbicidal effect (wild oat [8]; [10]): 0 (Herbicidal rate of 5% or less (almost no effect))
CCCC(=O)Oc1c(C)nn(C)c(=O)c1-c1c(-c2ccc(SCC)cc2)sc2ccc(F)cc12 [2-245]	–	–	–	3 (Herbicidal rate of 40% or more and less than 70%)	5 (Herbicidal rate of 90% or more (almost completely withered))	–	–	–	–	–	–	3 (Herbicidal rate of 40% or more and less than 70%)	–	–	–	–	–	herbicidal effect on O: lambsquarters (lambsquarters): 4 (Herbicidal rate of 70% or more and less than 90%); herbicidal effect on H: barnyard grass (barnyard grass [1]; [11]): 5 (Herbicidal rate of 90% or more (almost completely withered)); herbicidal effect on D: Chinese sprangletop (Chinese sprangletop; [11]): 4 (Herbicidal rate of 70% or more and less than 90%); herbicidal effect on M: velvetleaf (criteria 0-5) (velvetleaf [2]; [12]): 5 (Herbicidal rate of 90% or more (almost completely withered)); herbicidal effect on I: wild oat (wild oat [3]): 2 (Herbicidal rate of 20% or more and less than 40%); herbicidal effect on E: rice flat sedge (rice flat sedge; [11]): 4 (Herbicidal rate of 70% or more and less than 90%); herbicidal effect on M: velvetleaf (velvetleaf [4]): 2 (Herbicidal rate of 20% or more and less than 40%); herbicidal effect on G: green foxtail (criteria 0-5) (green foxtail; [12]): 5 (Herbicidal rate of 90% or more (almost completely withered)); herbicidal effect on P: chickweed (criteria 0-5) (chickweed; [12]): 5 (Herbicidal rate of 90% or more (almost completely withered)); herbicidal effect on J: blackgrass (criteria 0-5) (blackgrass; [12]): 4 (Herbicidal rate of 70% or more and less than 90%); herbicidal effect on L: windgrass (windgrass [6]): 3 (Herbicidal rate of 40% or more and less than 70%); herbicidal effect on H: barnyard grass (barnyard grass [7]): 5 (Herbicidal rate of 90% or more (almost completely withered)); herbicidal effect on I: wild oat (criteria 0-5) (wild oat [8]; [12]): 5 (Herbicidal rate of 90% or more (almost completely withered))
